Values joined by “and” are separate entries in the source; they are usually repeats but may differ in a detail not shown here. Equal values may be shown once. Toxic doses and inconclusive results are not listed. The calls were made as follows: active = survival T/C of 150% or more; inactive = T/C below 125% in these data.
Tested on: P388 leukemia ip, CD2F1 mice, survival T/C
Assay: NCI In Vivo Anticancer Drug Screen. Data for tumor model P388 Leukemia (intraperitoneal) in CD2F1 (CDF1) mice
Conditions: endpoint: median survival time, higher = longer survival
Summary of the method: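 Mice carrying the transplanted tumor received test compound or vehicle. Survival was recorded in each group, and the value is the treated-group measurement divided by that of the vehicle-treated control group.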

[1] = dose: 60.0 mg/kg/injection, schedule: Q01DX005 (ip), vehicle: saline with Tween-80
[2] = dose: 120.0 mg/kg/injection, schedule: Q01DX005 (ip), vehicle: saline with Tween-80
[3] = dose: 240.0 mg/kg/injection, schedule: Q01DX005 (ip), vehicle: saline with Tween-80
[4] = dose: 100.0 mg/kg/injection, schedule: Q01DX001 (ip), vehicle: saline
[5] = dose: 200.0 mg/kg/injection, schedule: Q01DX001 (ip), vehicle: saline
[6] = dose: 400.0 mg/kg/injection, schedule: Q01DX001 (ip), vehicle: saline
[7] = dose: 15.0 mg/kg/injection, schedule: Q01DX005 (ip), vehicle: saline with Tween-80
[8] = dose: 50.0 mg/kg/injection, schedule: Q01DX009 (ip), vehicle: Klucel (hydroxypropylcellulose) (HPC)
[9] = dose: 100.0 mg/kg/injection, schedule: Q01DX009 (ip), vehicle: Klucel (hydroxypropylcellulose) (HPC)
[10] = dose: 50.0 mg/kg/injection, schedule: Q01DX005 (ip), vehicle: saline with Tween-80
[11] = dose: 12.5 mg/kg/injection, schedule: Q01DX005 (ip), vehicle: saline with Tween-80
[12] = dose: 25.0 mg/kg/injection, schedule: Q01DX005 (ip), vehicle: saline with Tween-80
[13] = dose: 50.0 mg/kg/injection, schedule: Q01DX009 (ip), vehicle: saline with Tween-80
[14] = dose: 100.0 mg/kg/injection, schedule: Q01DX009 (ip), vehicle: saline with Tween-80
[15] = dose: 200.0 mg/kg/injection, schedule: Q01DX009 (ip), vehicle: saline with Tween-80

Measured: T/C

O=c1cc2n(c(=O)n1-c1ccccc1)CCCC2
inactive: [1] 102 % of control | [2] 100 % of control | [3] 103 % of control

COC(=O)[C@@]12OC[C@]34C([C@@H](O)C1O)[C@@]1(C)CC(=O)C(O)=C(C)C1C[C@H]3OC(=O)[C@H](OC(=O)c1cccc(Cl)c1)[C@H]42 (some centres undefined)
inactive: dose: 0.25 mg/kg/injection, schedule: Q01DX005 (ip), vehicle: DMSO 119 % of control | dose: 0.5 mg/kg/injection, schedule: Q01DX005 (ip), vehicle: DMSO 112 % of control | dose: 1.0 mg/kg/injection, schedule: Q01DX005 (ip), vehicle: DMSO 121 % of control and 93 % of control | dose: 2.0 mg/kg/injection, schedule: Q01DX005 (ip), vehicle: DMSO 109 % of control and 110 % of control | dose: 4.0 mg/kg/injection, schedule: Q01DX005 (ip), vehicle: DMSO 105 % of control | dose: 8.0 mg/kg/injection, schedule: Q01DX005 (ip), vehicle: DMSO 101 % of control and 104 % of control | dose: 16.0 mg/kg/injection, schedule: Q01DX005 (ip), vehicle: DMSO 111 % of control | dose: 32.0 mg/kg/injection, schedule: Q01DX005 (ip), vehicle: DMSO 108 % of control

COc1ccc2c(c1)CC[C@@H]1[C@@H]2CC[C@]2(C)[C@@H](OCCOS(=O)(=O)c3ccc(C)cc3)CC[C@@H]12
inactive: dose: 100.0 mg/kg/injection, schedule: Q01DX001 (ip), vehicle: saline with Tween-80 99 % of control | dose: 200.0 mg/kg/injection, schedule: Q01DX001 (ip), vehicle: saline with Tween-80 101 % of control | dose: 400.0 mg/kg/injection, schedule: Q01DX001 (ip), vehicle: saline with Tween-80 101 % of control

C=C1CC2(CC(C)CCC2C(C)C)OC1=O (centres undefined)
inactive: [4] 97 % of control | [5] 100 % of control | [6] 111 % of control

O=C(N/N=C/c1ccc(C(F)(F)F)cc1)c1ccncc1
inactive: [7] 106 % of control | dose: 30.0 mg/kg/injection, schedule: Q01DX005 (ip), vehicle: saline with Tween-80 101 % of control | [1] 101 % of control and 97 % of control | [2] 100 % of control | [3] 100 % of control

Cc1ccc(C2(COC(=O)c3ccccc3)CO2)c(OC(=O)C(C)C)c1 (centres undefined)
inactive: dose: 12.5 mg/kg/injection, schedule: Q01DX009 (ip), vehicle: Klucel (hydroxypropylcellulose) (HPC) 99 % of control | dose: 25.0 mg/kg/injection, schedule: Q01DX009 (ip), vehicle: Klucel (hydroxypropylcellulose) (HPC) 95 % of control | [8] 107 % of control | [9] 105 % of control

CC1OCC(O)C(C(O)C(=O)CN(Cc2ccccc2)Cc2ccccc2)O1 (centres undefined)
inactive: [10] 99 % of control | dose: 100.0 mg/kg/injection, schedule: Q01DX005 (ip), vehicle: saline with Tween-80 99 % of control | dose: 200.0 mg/kg/injection, schedule: Q01DX005 (ip), vehicle: saline with Tween-80 91 % of control

CC(=O)OCC1OC(n2cnc3c(=O)n(S(=O)(=O)c4ccc(C)cc4)cnc32)C(OC(C)=O)C1OC(C)=O (centres undefined)
inactive: [1] 103 % of control | [2] 106 % of control | [3] 100 % of control

CC(=O)O.Cl.NC1C([O-])OC(CO)C(O)C1O.O=C1OC(C(O)CO)C([O-])=C1[OH2+].[Cu+2] (centres undefined)
inactive: dose: 3.75 mg/kg/injection, schedule: Q01DX005 (ip), vehicle: saline with Tween-80 107 % of control | dose: 7.5 mg/kg/injection, schedule: Q01DX005 (ip), vehicle: saline with Tween-80 100 % of control | [7] 98 % of control and 97 % of control | [1] 108 % of control

O=CC(C(=O)c1ccccc1[N+](=O)[O-])c1ccccc1 (centres undefined)
inactive: dose: 50.0 mg/kg/injection, schedule: Q01DX005 (ip), vehicle: Klucel (hydroxypropylcellulose) (HPC) 89 % of control | dose: 100.0 mg/kg/injection, schedule: Q01DX005 (ip), vehicle: Klucel (hydroxypropylcellulose) (HPC) 104 % of control | dose: 200.0 mg/kg/injection, schedule: Q01DX005 (ip), vehicle: Klucel (hydroxypropylcellulose) (HPC) 98 % of control

C=C1CC2(CC(C(=C)C)CCC2C)OC1=O (centres undefined)
inactive: [4] 101 % of control | [5] 99 % of control | [6] 102 % of control

COC(=O)c1nnc(C(=O)OC)c2c1c1ccccc1n2C(C)=O
inactive: dose: 100.0 mg/kg/injection, schedule: Q04DX002 (ip), vehicle: saline with Tween-80 99 % of control | dose: 200.0 mg/kg/injection, schedule: Q04DX002 (ip), vehicle: saline with Tween-80 99 % of control | dose: 400.0 mg/kg/injection, schedule: Q04DX002 (ip), vehicle: saline with Tween-80 99 % of control

O=P1(c2ccccc2)OCC2=C(c3ccccc3)CC2=C1c1ccccc1 (centres undefined)
inactive: [8] 105 % of control | [9] 103 % of control | dose: 200.0 mg/kg/injection, schedule: Q01DX009 (ip), vehicle: Klucel (hydroxypropylcellulose) (HPC) 105 % of control

CC1(C)COC(c2cccc3c2C2C=CC3O2)=N1 (centres undefined)
inactive: [1] 92 % of control | [2] 97 % of control | [3] 108 % of control

CCNC(CC)CCCNc1cc(OC)cc2cccnc12 (centres undefined)
inactive: dose: 6.25 mg/kg/injection, schedule: Q01DX005 (ip), vehicle: saline with Tween-80 106 % of control | [11] 98 % of control | [12] 102 % of control

O=C1CC(Cl)(CS(F)(F)(F)(F)F)O1 (centres undefined)
inactive: dose: 12.5 mg/kg/injection, schedule: Q01DX005 (ip), vehicle: saline + alcohol 100 % of control | [11] 104 % of control | dose: 25.0 mg/kg/injection, schedule: Q01DX005 (ip), vehicle: saline + alcohol 103 % of control | [12] 109 % of control | dose: 50.0 mg/kg/injection, schedule: Q01DX005 (ip), vehicle: saline + alcohol 99 % of control | [10] 110 % of control and 114 % of control

OC(c1cccnc1)C(CCc1ccccn1)c1ccccn1 (centres undefined)
inactive: dose: 100.0 mg/kg/injection, schedule: Q04DX003 (ip), vehicle: saline 102 % of control | dose: 200.0 mg/kg/injection, schedule: Q04DX003 (ip), vehicle: saline 101 % of control | dose: 400.0 mg/kg/injection, schedule: Q04DX003 (ip), vehicle: saline 91 % of control

CCCc1cc(=O)[nH]c(Sc2c([N+](=O)[O-])ncn2C)n1
inactive: [13] 103 % of control | [14] 95 % of control | [15] 91 % of control

CCCCCCCCCCCCCCCC(=O)N(CCCCN(C(=O)CCCCCCCCCCCCCCC)C(C)CCCN(CC)CC)C(C)CCCN(CC)CC (centres undefined)
inactive: dose: 25.0 mg/kg/injection, schedule: Q01DX009 (ip), vehicle: other 93 % of control | dose: 50.0 mg/kg/injection, schedule: Q01DX009 (ip), vehicle: other 93 % of control

CC(=N\O)/C(C)=N/Nc1ccccc1Cl
inactive: dose: 50.0 mg/kg/injection, schedule: Q01DX009 (ip), vehicle: saline 98 % of control | dose: 100.0 mg/kg/injection, schedule: Q01DX009 (ip), vehicle: saline 104 % of control | dose: 200.0 mg/kg/injection, schedule: Q01DX009 (ip), vehicle: saline 89 % of control

CC(=O)C1CC2C=CC1N(C1=CC(=O)CC(C)(C)C1)C2=O (centres undefined)
inactive: [13] 108 % of control | [14] 107 % of control | [15] 100 % of control

O=S(=O)(OC(=C(c1ccccc1)c1ccccc1)c1ccccc1)C(F)(F)F
inactive: dose: 50.0 mg/kg/injection, schedule: Q01DX009 (ip), vehicle: olive oil, sesame oil, peanut oil 99 % of control | dose: 100.0 mg/kg/injection, schedule: Q01DX009 (ip), vehicle: olive oil, sesame oil, peanut oil 107 % of control | dose: 200.0 mg/kg/injection, schedule: Q01DX009 (ip), vehicle: olive oil, sesame oil, peanut oil 112 % of control

CC(=Nc1ccccc1)C1=C(O)C(CC(C)C)NC1=O (centres undefined)
inactive: [13] 103 % of control | [14] 99 % of control | [15] 100 % of control | dose: 400.0 mg/kg/injection, schedule: Q01DX009 (ip), vehicle: saline with Tween-80 110 % of control

CC1=CC(=N\S(=O)(=O)c2ccccc2)/c2ccccc2/C1=N/S(=O)(=O)c1ccccc1
inactive: dose: 12.5 mg/kg/injection, schedule: Q01DX001 (ip), vehicle: saline with Tween-80 104 % of control | dose: 25.0 mg/kg/injection, schedule: Q01DX001 (ip), vehicle: saline with Tween-80 100 % of control | dose: 50.0 mg/kg/injection, schedule: Q01DX001 (ip), vehicle: saline with Tween-80 95 % of control

— PubChem BioAssay AID330 (DTP/NCI, 2004)
